Reference: patent US20240158446A1, “CYCLIC COMPOUND HAVING SELECTIVE INHIBITORY ACTION ON KRAS OVER HRAS AND NRAS” (CHUGAI SEIYAKU KABUSHIKI KAISHA, priority 2021, published 2024)

Assays:
[1] = biological target: GDP-bound NRAS wild-type protein (Homo sapiens, UniProt P01111); experiment: Binding to NRAS by surface plasmon resonance (SPR), Single Cycle Kinetics; conditions: SPR KD ratio NRAS/KRAS, class symbols
[2] = biological target: GDP-bound HRAS wild-type protein (Homo sapiens, UniProt P01112); experiment: Binding to HRAS by surface plasmon resonance (SPR), Single Cycle Kinetics; conditions: SPR KD ratio HRAS/KRAS, class symbols
[3] = biological target: GDP-bound KRAS wild-type protein (Homo sapiens, UniProt P01116); experiment: Binding to KRAS by surface plasmon resonance (SPR), Single Cycle Kinetics; conditions: SPR Single Cycle Kinetics, GDP-bound KRAS wild-type protein, 1:1 binding model; read-out: KRAS KD
GDP-bound KRAS wild-type protein, sequence (P01116 whole entry): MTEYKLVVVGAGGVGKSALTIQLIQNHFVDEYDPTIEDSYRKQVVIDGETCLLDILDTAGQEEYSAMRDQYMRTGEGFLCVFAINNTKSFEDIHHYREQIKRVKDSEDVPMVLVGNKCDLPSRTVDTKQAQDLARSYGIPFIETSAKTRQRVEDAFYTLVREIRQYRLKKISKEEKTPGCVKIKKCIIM

GDP-bound NRAS wild-type protein, sequence (P01111 whole entry): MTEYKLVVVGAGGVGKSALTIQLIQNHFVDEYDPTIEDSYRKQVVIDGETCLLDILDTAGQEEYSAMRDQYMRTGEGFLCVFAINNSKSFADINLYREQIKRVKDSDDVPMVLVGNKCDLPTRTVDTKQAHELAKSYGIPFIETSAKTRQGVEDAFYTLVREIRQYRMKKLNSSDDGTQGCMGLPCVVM
GDP-bound HRAS wild-type protein, sequence (P01112 whole entry): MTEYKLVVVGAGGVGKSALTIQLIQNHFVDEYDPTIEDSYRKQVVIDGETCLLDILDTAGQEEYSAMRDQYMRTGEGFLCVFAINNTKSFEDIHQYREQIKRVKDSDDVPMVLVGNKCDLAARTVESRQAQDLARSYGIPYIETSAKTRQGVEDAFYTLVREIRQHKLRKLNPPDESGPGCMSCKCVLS

SMILES | Kd [3] | NRAS/KRAS (ratio of KD value with respect to GDP-bound NRAS wild-type protein to KD value with respect to KRAS) [1] | HRAS/KRAS (ratio of KD value with respect to GDP-bound HRAS wild-type protein to KD value with respect to KRAS) [2]
CC[C@H](C)[C@@H]1NC(=O)[C@H](CC2CC2)N(C)C(=O)C[C@@H](C(=O)N(C)C)N(C)C(=O)[C@H](C2CCCC2)N(C)C(=O)C2(CC(C)(C)C2)NC(=O)[C@@H]2C[C@@H](F)CN2C(=O)[C@H](CCc2cc(F)c(C(F)(F)F)c(F)c2)NC(=O)CN(C)C(=O)[C@H](Cc2ccc(C)cc2)N2CC/C=C\C[C@@H](C2=O)N(C)C(=O)CN(C)C1=O [PP2804] | 0.033 nM | A (a compound having 10 or more and less than 20 is denoted as A) | A (a compound having 10 or more and less than 20 is denoted as A)
CCCC[C@H]1C(=O)N[C@@H]([C@@H](C)CC)C(=O)N(C)CC(=O)N(C)[C@H]2C/C=C\CCN(C2=O)[C@@H](Cc2ccc(C(F)(F)F)cc2)C(=O)N(C)CC(=O)N[C@@H](CCc2cc(F)c(C(F)(F)F)c(F)c2)C(=O)N2C[C@H](OCC)C[C@H]2C(=O)NC2(CC(C)(C)C2)C(=O)N(C)[C@@H](C2CCCC2)C(=O)N(C)[C@H](C(=O)N(C)CC)CC(=O)N1C [PP2806] | 0.12 nM | A (a compound having 10 or more and less than 20 is denoted as A) | A (a compound having 10 or more and less than 20 is denoted as A)
CCC[C@H]1C(=O)N[C@@H]([C@@H](C)CC)C(=O)N(C)CC(=O)N(C)[C@H]2C/C=C\CCN(C2=O)[C@@H](Cc2ccc(C(F)(F)F)cc2)C(=O)N(C)CC(=O)N[C@@H](CCc2cc(F)c(C(F)(F)F)c(F)c2)C(=O)N2C[C@H](OCC)C[C@H]2C(=O)NC2(CC(C)(C)C2)C(=O)N(C)[C@@H](CC2CC2)C(=O)N(C)[C@H](C(=O)N(C)C)CC(=O)N1C [PP2807] | 0.34 nM | AA (a compound having 20 or more is denoted as AA) | A (a compound having 10 or more and less than 20 is denoted as A)
CCCC[C@H]1C(=O)N[C@@H]([C@@H](C)CC)C(=O)N(C)CC(=O)N(C)[C@H]2C/C=C\CCN(C2=O)[C@@H](Cc2ccc(C)cc2)C(=O)N(C)CC(=O)N[C@@H](CCc2cc(F)c(C(F)(F)F)c(F)c2)C(=O)N2C[C@H](OCC)C[C@H]2C(=O)NC2(CC(C)(C)C2)C(=O)N(C)[C@@H](C2CCCC2)C(=O)N(C)[C@H](C(=O)N(C)CC)CC(=O)N1C [PP2808] | 0.43 nM | B (a compound having 3 or more and less than 10 is denoted as B) | B (a compound having 3 or more and less than 10 is denoted as B)
CCC(CC)[C@H]1C(=O)N(C)[C@H](C(=O)N(C)C)CC(=O)N(C)[C@@H](COC)C(=O)N[C@@H]([C@@H](C)CC)C(=O)N(C)CC(=O)N(C)[C@H]2C/C=C\CCN(C2=O)[C@@H](Cc2ccc(C)cc2)C(=O)N(C)CC(=O)N[C@@H](CCc2ccc(Cl)c(Cl)c2)C(=O)N2C[C@H](OC3CCCC3)C[C@H]2C(=O)N(C)C2(CC(C)(C)C2)C(=O)N1C [PP2818] | 0.88 nM | A (a compound having 10 or more and less than 20 is denoted as A) | A (a compound having 10 or more and less than 20 is denoted as A)
CCO[C@@H]1C[C@H]2C(=O)NC3(CC(C)(C)C3)C(=O)N(C)[C@@H](C3CCCC3)C(=O)N(C)[C@H](C(=O)N(C)CC)CC(=O)N(C)[C@@H](CC)C(=O)N[C@@H]([C@@H](C)CC)C(=O)N(C)CC(=O)N(C)[C@H]3C/C=C\CCN(C3=O)[C@@H](Cc3ccc(C(F)(F)F)cc3)C(=O)N(C)CC(=O)N[C@@H](CCc3ccc(Cl)c(Cl)c3)C(=O)N2C1 [PP2822] | 0.26 nM | A (a compound having 10 or more and less than 20 is denoted as A) | A (a compound having 10 or more and less than 20 is denoted as A)
CCO[C@@H]1C[C@H]2C(=O)NC3(CC(C)(C)C3)C(=O)N(C)[C@@H](C3CCCC3)C(=O)N(C)[C@H](C(=O)N(C)CC)CC(=O)N(C)[C@@H](CC)C(=O)N[C@@H]([C@@H](C)CC)C(=O)N(C)CC(=O)N(C)[C@H]3C/C=C\CCN(C3=O)[C@@H](Cc3ccc(C(F)(F)F)cc3)C(=O)N(C)CC(=O)N[C@@H](CCc3ccc(C(F)(F)F)c(Cl)c3)C(=O)N2C1 [PP2823] | 0.13 nM | A (a compound having 10 or more and less than 20 is denoted as A) | A (a compound having 10 or more and less than 20 is denoted as A)
CCO[C@@H]1C[C@H]2C(=O)NC3(CCC3)C(=O)N(C)[C@@H](C3CCCC3)C(=O)N(C)[C@H](C(=O)N(C)CC)CC(=O)N(C)[C@@H](CC3CCC3)C(=O)N[C@@H]([C@@H](C)CC)C(=O)N(C)CC(=O)N(C)[C@H]3C/C=C\CCN(C3=O)[C@@H](Cc3ccc(C(F)(F)F)cc3)C(=O)N(C)CC(=O)N[C@@H](CCc3ccc(C(F)(F)F)c(OC)c3)C(=O)N2C1 [PP2825] | 0.12 nM | A (a compound having 10 or more and less than 20 is denoted as A) | B (a compound having 3 or more and less than 10 is denoted as B)

More lines, main results first:

Kd [3] | SMILES | NRAS/KRAS (ratio of KD value with respect to GDP-bound NRAS wild-type protein to KD value with respect to KRAS) [1] | HRAS/KRAS (ratio of KD value with respect to GDP-bound HRAS wild-type protein to KD value with respect to KRAS) [2]
0.9 nM | CCC[C@H]1C(=O)N[C@@H]([C@@H](C)CC)C(=O)N(C)CC(=O)N(C)[C@H]2C/C=C\CCN(C2=O)[C@@H](Cc2ccc(C(F)(F)F)cc2)C(=O)N(C)CC(=O)N[C@@H](CCc2ccc(C(F)(F)F)c(OC)c2)C(=O)N2C[C@H](OCC)C[C@H]2C(=O)NC2(CC(C)(C)C2)C(=O)N(C)[C@@H](CC2CC2)C(=O)N(C)[C@H](C(=O)N(C)C)CC(=O)N1C [PP2809] | A (a compound having 10 or more and less than 20 is denoted as A) | A (a compound having 10 or more and less than 20 is denoted as A)
0.82 nM | CCC[C@H]1C(=O)N[C@@H]([C@@H](C)CC)C(=O)N(C)CC(=O)N(C)[C@H]2C/C=C\CCN(C2=O)[C@@H](Cc2ccc(C(F)(F)F)cc2)C(=O)N(C)CC(=O)N[C@@H](CCc2ccc(Cl)c(Cl)c2)C(=O)N2C[C@H](OCC)C[C@H]2C(=O)NC2(CC(C)(C)C2)C(=O)N(C)[C@@H](CC2CC2)C(=O)N(C)[C@H](C(=O)N(C)C)CC(=O)N1C [PP2811] | A (a compound having 10 or more and less than 20 is denoted as A) | A (a compound having 10 or more and less than 20 is denoted as A)
1.7 nM | CCC[C@H]1C(=O)N[C@@H]([C@@H](C)CC)C(=O)N(C2CC2)CC(=O)N(C)[C@H]2C/C=C\CCN(C2=O)[C@@H](Cc2ccc(C(F)(F)F)cc2)C(=O)N(C)CC(=O)N[C@@H](CCc2cc(F)c(C(F)(F)F)c(F)c2)C(=O)N2C[C@H](OCC)C[C@H]2C(=O)NC2(CC(C)(C)C2)C(=O)N(C)[C@@H](CC2CC2)C(=O)N(C)[C@H](C(=O)N(C)C)CC(=O)N1C [PP2813] | AA (a compound having 20 or more is denoted as AA) | A (a compound having 10 or more and less than 20 is denoted as A)
3.6 nM | CCC[C@H]1C(=O)N[C@@H]([C@@H](C)CC)C(=O)N(C2CC2)CC(=O)N(C)[C@H]2C/C=C\CCN(C2=O)[C@@H](Cc2ccc(C(F)(F)F)cc2)C(=O)N(C)CC(=O)N[C@@H](CCc2ccc(C(F)(F)F)c(OC)c2)C(=O)N2C[C@H](OCC)C[C@H]2C(=O)NC2(CC(C)(C)C2)C(=O)N(C)[C@@H](CC2CC2)C(=O)N(C)[C@H](C(=O)N(C)C)CC(=O)N1C [PP2815] | A (a compound having 10 or more and less than 20 is denoted as A) | A (a compound having 10 or more and less than 20 is denoted as A)
2.4 nM | CCC[C@H]1C(=O)N[C@@H]([C@@H](C)CC)C(=O)N(C2CC2)CC(=O)N(C)[C@H]2C/C=C\CCN(C2=O)[C@@H](Cc2ccc(C(F)(F)F)cc2)C(=O)N(C)CC(=O)N[C@@H](CCc2ccc(Cl)c(Cl)c2)C(=O)N2C[C@H](OCC)C[C@H]2C(=O)NC2(CC(C)(C)C2)C(=O)N(C)[C@@H](CC2CC2)C(=O)N(C)[C@H](C(=O)N(C)C)CC(=O)N1C [PP2817] | A (a compound having 10 or more and less than 20 is denoted as A) | A (a compound having 10 or more and less than 20 is denoted as A)
2.2 nM | CCC[C@H]1C(=O)N[C@@H]([C@@H](C)CC)C(=O)N(C2CC2)CC(=O)N(C)[C@H]2C/C=C\CCN(C2=O)[C@@H](Cc2ccc(C(F)(F)F)cc2)C(=O)N(C)CC(=O)N[C@@H](CCc2ccc(Cl)c(Cl)c2)C(=O)N2C[C@H](OCC)C[C@H]2C(=O)NC2(CC(C)(C)C2)C(=O)N(C)[C@@H](CC2CCC2)C(=O)N(C)[C@H](C(=O)N(C)C)CC(=O)N1C [PP2819] | A (a compound having 10 or more and less than 20 is denoted as A) | A (a compound having 10 or more and less than 20 is denoted as A)
1.8 nM | CCO[C@@H]1C[C@H]2C(=O)NC3(CC(C)(C)C3)C(=O)N(C)[C@@H](CC3CCC3)C(=O)N(C)[C@H](C(=O)N(C)C)CC(=O)N(C)[C@@H](COC)C(=O)N[C@@H]([C@@H](C)CC)C(=O)N(C3CC3)CC(=O)N(C)[C@H]3C/C=C\CCN(C3=O)[C@@H](Cc3ccc(C(F)(F)F)cc3)C(=O)N(C)CC(=O)N[C@@H](CCc3ccc(Cl)c(Cl)c3)C(=O)N2C1 [PP2821] | A (a compound having 10 or more and less than 20 is denoted as A) | A (a compound having 10 or more and less than 20 is denoted as A)
